# In article PMC12114947, “Evaluation of Violacein Metabolic Stability and Metabolite Identification in Human, Mouse, and Rat Liver Microsomes” (Pharmaceutics, 2025):
# Tests used:
# HT29 cells = test system: HT29 cells; design: method as in PMID 16889929; settings: cited from earlier work
# [1] = In vitro metabolic stability in mouse liver microsomes; format: in vitro ADME
# Experimental: After removal, a pool consisting of livers from five naïve male rats and five C57BL male mice was immediately placed in a 50 mM Tris-HCl buffer, pH 7.4, containing 150 mM KCl. The livers were diced with scissors and washed three times with buffer, followed by homogenization with 20 mL of buffer in a Potter-type homogenizer (three cycles, with each cycle comprising three grindings of 1 min each at 1000 rpm). The homogenate was centrifuged at 10,000× g for 15 min at 4 °C. The resulting supernatant was then ultracentrifuged at 100,000× g for 60 min at 4 °C to obtain the microsomal pellet, which was resuspended in 50 mM HEPES-HCl buffer, pH 7.4, containing 20% glycerol and 1 mM EDTA.
# (§1) The metabolic stability of volacein was assessed as described by Godoi et al. and Antunes et al.. Aliquots (4 µL) of 100 µM violacein working solution and 96 µL of the NADPH-regenerating system, containing 1.1 mM NADP^+, 10 mM glucose-6-phosphate, 1 U/mL glucose-6-phosphate dehydrogenase, 5 mM sodium citrate, and 66 mM magnesium chloride in 100 mM phosphate buffer, pH 7.4, were transferred to propylene tubes and pre-incubated for 5 min in an MTC 100 thermo shaker incubator (Miulab, Zhejiang, China) at 300 rpm and 37 °C. Subsequently, the metabolic reactions were initiated by adding 100 μL of microsomal proteins from HLMs, RLMs, and MLMs at a concentration of 2 mg/mL to the pre-incubated shaking tubes, resulting in final concentrations of 2 μM for violacein and 1 mg/mL for microsomal proteins. In this experiment, seven incubation times were planned for each species (0, 3, 5, 15, 30, 60, and 120 min), in triplicate. At each time interval, the reactions were stopped by adding 400 μL of ice-cold acetonitrile spiked with 10 µM omeprazole (IS) to each tube. Finally, the samples were vortexed for 5 min in a BenchMixer^TM XL (Benchmark, NJ, USA) and centrifuged at 12,000× g for 15 min at 4 °C (Hettich® Universal 320 R, Tuttlingen, Germany). The supernatants were transferred to a 96-well plate and 8 μL was injected into the LC-MS/MS system (see Section 2.3).
# (§2) All incubations were performed simultaneously with positive and negative controls. The positive controls were prepared by incubating dapaconazole at the same conditions as violacein (final concentrations: 2 μM) and its metabolic stability was compared with previous studies. Similarly, the negative controls were prepared by incubating violacein in buffer solution, in the absence of microsome and cofactor solutions.
# (§3) Violacein was analyzed using LC-MS/MS (LC-QQQ MS, LCMS8045, Shimadzu, Kyoto, Japan). Chromatographic separation was achieved on a Raptor^TM Biphenyl column (2.1 × 100 mm, 2.7 μm) at 40 °C. The mobile phases consisted of water (mobile phase A) and methanol (mobile phase B), both containing 2 mM ammonium formate and 0.1% (v/v) formic acid. A flow rate of 0.3 mL/min was used with an elution gradient starting at 20% mobile phase B and holding for 0.2 min, followed by a linear increase to 95% mobile phase B over 2 min that was then maintained for 1 min, with a return to the initial condition in 0.2 min. The total chromatographic run time was 5 min.
# (§4) In vitro t1/2 was calculated using to the following equation [60, 61]:(1) t1/2=ln(2)/k where k is the slope of the log-linear regression graph of the percentage of drug remaining as a function of time.
# CLint, in vitro was calculated using to the following equation [60, 61]:(2) CLint, in vitro=0.693/t1/2×Vincubation/mmicrosomes where Vincubation indicates the volume of the incubation in μL and mmicrosomes indicates the mass of microsomal proteins added to the incubation solution in mg. […]
# Cryptococcus gastricus = test system: Cryptococcus gastricus; design: method as in PMID 26428920; settings: cited from earlier work
# Caco-2 cells = test system: Caco-2 cells; design: method as in PMID 16889929; settings: cited from earlier work
# [2] = test system: P. falciparum 3D7 strain (chloroquine-sensitive); design: method as in PMID 29642881, PMID 33689276; settings: P. falciparum 3D7 (chloroquine-sensitive); cited from earlier work
# Candida albicans = test system: Candida albicans; design: method as in PMID 26428920; settings: cited from earlier work
# in vitro = in vitro ADME; settings: human
# Experimental: as §1, §2, §3, §4
# CLint, in vitro was calculated using to the following equation [60, 61]:(2) CLint, in vitro=0.693/t1/2×Vincubation/mmicrosomes where Vincubation indicates the volume of the incubation in μL and mmicrosomes indicates the mass of microsomal proteins added to the incubation solution in mg.
# After determining CLint, in vitro, it was possible to calculate CLint, in vivo using allometric scaling, as follows:(3) CLint, in vivo=CLint, in vitro×mmicrosomes/gliver×mliver/kgper body weight where mmicrosomes is 61, 45, and 40 mg and represents the mass of microsomal protein per gram of liver (gliver) for rats, mice, and humans, respectively. The mliver is 40, 87.5, and 25.7 g/kg and represents the mass of liver per kilogram of body weight (kgper body weight) for rats, mice, and humans, respectively.
# Metabolic stability was evaluated by linear regression analysis of the residual violacein after incubating 4 µM violacein with 2 mg/mL of HLMs, MLMs, and RLMs in the presence of the enzymatic cofactors required for CYP function in microsomes. Calculation of the in vitro violacein metabolic stability was achieved by plotting the remaining percentage of violacein on the y-axis and the incubation time on the x-axis (Figure 1a). […]
smiles,measurement,setting,value
O=C1NC(c2c[nH]c3ccc(O)cc23)=C/C1=C1\C(=O)Nc2ccccc21 [violacein],IC50,HT29 cells,> 10000 nM
same,"CLint, in vitro",[1]; MLMs,17.01 µL/min/mg
same,Ln Z,"[1]; MLMs, time 0 min",4.605
same,"Z (%), remaining percentage of violacein","[1]; MLMs, time 0 min",100%
same,Ln Z,"[1]; MLMs, time 3 min",4.490
same,"Z (%), remaining percentage of violacein","[1]; MLMs, time 3 min",89%
same,Ln Z,"[1]; MLMs, time 5 min",4.379
same,"Z (%), remaining percentage of violacein","[1]; MLMs, time 5 min",80%
same,Ln Z,"[1]; MLMs, time 15 min",4.244
same,"Z (%), remaining percentage of violacein","[1]; MLMs, time 15 min",70%
same,Ln Z,"[1]; MLMs, time 30 min",4.022
same,"Z (%), remaining percentage of violacein","[1]; MLMs, time 30 min",56%
same,Ln Z,"[1]; MLMs, time 60 min",3.715
same,"Z (%), remaining percentage of violacein","[1]; MLMs, time 60 min",41%
same,Ln Z,"[1]; MLMs, time 120 min",3.385
same,"Slope (k), metabolism rate constant","[1]; MLMs, ln remaining % vs incubation time",y = −0.0085x + 4.3405 r^2 = 0.9554 Slope (k) = 0.0085
same,microsomal CLint at 2 µM,"[1]; male, C57BL, mouse, mouse liver microsomes, pH 7.4, MLMs",17 µL/min/mg
same,CLint scaled at 2 µM,"[1]; male, C57BL, mouse, mouse liver microsomes, pH 7.4, mouse, extrapolated from CLint, in vitro by allometric scaling, read-out: CLint, in vivo",67 mL/min/kg
same,half-life at 2 µM,"[1]; male, C57BL, mouse, mouse liver microsomes, pH 7.4, MLMs, 2 μM violacein, 1 mg/mL microsomal protein, NADPH-regenerating system, 37 °C, n = 3, read-out: In vitro elimination half-life (t1/2)",1.35 h
same,"CLint, in vivo","[1]; mouse, extrapolated from CLint, in vitro by allometric scaling",66.99 mL/min/kg
same,MIC,Cryptococcus gastricus,32 µg/mL
same,IC50,Caco-2 cells,~2000 nM
same,IC50,[2],~400 nM
same,MIC,Candida albicans,8 µg/mL
same,Ln Z,"in vitro; 0 min, 2 µM, pH 7.4",4.605
same,"Slope (k), metabolism rate constant","in vitro; 2 µM, pH 7.4",y = −0.0032x + 4.3894 r^2 = 0.9651 Slope (k) = 0.0032
same,Ln Z,"in vitro; 3 min, 2 µM, pH 7.4",4.462
same,Ln Z,"in vitro; 5 min, 2 µM, pH 7.4",4.417
same,Ln Z,"in vitro; 15 min, 2 µM, pH 7.4",4.316
same,Ln Z,"in vitro; 30 min, 2 µM, pH 7.4",4.277
same,Ln Z,"in vitro; 60 min, 2 µM, pH 7.4",4.183
same,Ln Z,"in vitro; 120 min, 2 µM, pH 7.4",4.017
same,"Z (%), remaining percentage of violacein","in vitro; microsomes, 0 h, 2 µM, pH 7.4",100%
same,"CLint, in vivo","in vitro; microsomes, 2 µM, pH 7.4",6.58 mL/min/kg
same,"Z (%), remaining percentage of violacein","in vitro; microsomes, 0.05 h, 2 µM, pH 7.4",87%
same,"Z (%), remaining percentage of violacein","in vitro; microsomes, 5 min, 2 µM, pH 7.4",83%
same,"Z (%), remaining percentage of violacein","in vitro; microsomes, 0.25 h, 2 µM, pH 7.4",75%
same,"Z (%), remaining percentage of violacein","in vitro; microsomes, 0.5 h, 2 µM, pH 7.4",72%
same,"Z (%), remaining percentage of violacein","in vitro; microsomes, 1 h, 2 µM, pH 7.4",66%
same,half-life at 2 µM,"in vitro; microsomes, pH 7.4",3.6 h
same,microsomal CLint at 2 µM,"in vitro; microsomes, pH 7.4",6.4 µL/min/mg
same,CLint scaled at 2 µM,"in vitro; microsomes, pH 7.4, CLint, in vivo",6.6 mL/min/kg
